# Experimental data published in patent US4772586A, “Novel derivatives of arginine vasopressin antagonists” (Medical College of Ohio, priority 1986, dated 1988).
# *1 amine or outer side, *2 acyl side, *3 side chain or, on linkers, in order; H or OH if unused. Where a SMILES comes first, the peptide text is derived from it. Bridges are numbered along the chain shown (N, C = ends). [ ]: non-standard residue; d: D form. Ethylenediamine = C(CN[*:2])N[*:1]; X1 = O=C(CC1(S[*:2])CCCCC1)[*:1]
# Legend:
# [1] = test system: antidiuretic response to arginine vasopressin; test: Antagonism of the antidiuretic response to arginine vasopressin (Anti-ADH); format: in vivo, rats; conditions: estimated in vivo pA2
# Method: Activity as antidiuretic agonists was determined by intravenous injection of the compounds being evaluated in ethanol-anesthesized water-loaded rats in accordance with Sawyer, Endocrinology, vol. 63 (1958) at 694. Antagonism of the antidiuretic response to subsequent injections of arginine vasopressin was tested by the method of Sawyer et al., Science, vol. 212 (1981) at 49.
# (§1) Antagonistic potencies were determined and expressed as "effective doses" and pA2 values. The "effective dose" is defined as the dose (in nanomoles per kilogram) that reduces the response seen from 2x units of agonist injected 20 min after the dose of antagonist to the response with 1x units of agonist. Estimated in vivo "pA2 " values represent the negative logarithms of the effective doses, divided by the estimated volume of distribution (67 ml/kg).
# [2] = test system: vasopressor response to arginine vasopressin; test: Antagonism to the vasopressor response (Anti-VP); format: in vivo; conditions: estimated in vivo pA2
# Method: Antagonism to the vasopressor response was estimated in accordance with Dyckes et al., J. Med. Chem., vol. 17 (1974) at 969. The values are expressed as pA2 values, defined as in Schild et al., Br. J. Pharmacol., vol. 2 (1947) at 189.
# as §1
Compound,Anti-ADH Potency pA2 ([1]; Table 2),Anti-VP Potency pA2 ([2]; Table 2),Anti-ADH Potency pA2 ([1]; Table 4),"Anti-VP Potency pA2 ([2]; Table 4, ^+ = mixed)"
"CC[C@H](C)[C@@H]1NC(=O)[C@H](Cc2ccccc2)NC(=O)[C@@H](Cc2ccccc2)NC(=O)CC2(CCCCC2)SSC[C@@H](C(=O)N2CCC[C@H]2C(=O)N[C@@H](CCCNC(=N)N)C(=O)N[C@@H](CO)C(N)=O)NC(=O)[C@H](CC(N)=O)NC1=O [Ser(NH2), [1-(beta-mercapto-beta,beta-cyclopentamethylenepropionic acid), 2-D-phenylalanine, 4-isoleucine, 9-serinamide]-arginine vasopressin] ([dF]FINCPRS-NH2; linker N-5 via X1)",8.10 ± 0.07,8.10 ± 0.08,–,–
"CC[C@H](C)[C@@H]1NC(=O)[C@H](Cc2ccccc2)NC(=O)[C@@H](Cc2ccccc2)NC(=O)CC2(CCCCC2)SSC[C@@H](C(=O)N2CCC[C@H]2C(=O)N[C@@H](CCCNC(=N)N)C(=O)N[C@H](C(N)=O)[C@@H](C)O)NC(=O)[C@H](CC(N)=O)NC1=O [Thr(NH2), [1-(beta-mercapto-beta,beta-cyclopentamethylenepropionic acid), 2-D-phenylalanine, 4-isoleucine, 9-threoinamide]-arginine vasopressin] ([dF]FINCPRT-NH2; linker N-5 via X1)",7.39 ± 0.04,7.64 ± 0.11,–,–
"CC[C@H](C)[C@@H]1NC(=O)[C@H](Cc2ccccc2)NC(=O)[C@@H](Cc2ccccc2)NC(=O)CC2(CCCCC2)SSC[C@@H](C(=O)N2CCC[C@H]2C(=O)N[C@@H](CCCNC(=N)N)C(=O)N[C@@H](Cc2ccc(O)cc2)C(N)=O)NC(=O)[C@H](CC(N)=O)NC1=O [Tyr(NH2), [1-(beta-mercapto-beta,beta-cyclopentamethylenepropionic acid), 2-D-phenylalanine, 4-isoleucine, 9-tyrosinamide]-arginine vasopressin] ([dF]FINCPRY-NH2; linker N-5 via X1)",7.85 ± 0.06,7.27 ± 0.05,–,–
"CC[C@H](C)[C@@H]1NC(=O)[C@H](Cc2ccccc2)NC(=O)[C@@H](Cc2ccccc2)NC(=O)CC2(CCCCC2)SSC[C@@H](C(=O)N2CCC[C@H]2C(=O)N[C@@H](CCCNC(=N)N)C(=O)N[C@H](C(N)=O)C(C)C)NC(=O)[C@H](CC(N)=O)NC1=O [Val(NH2), [1-(beta-mercapto-beta,beta-cyclopentamethylenepropionic acid), 2-D-phenylalanine, 4-isoleucine, 9-valinamide]-arginine vasopressin] ([dF]FINCPRV-NH2; linker N-5 via X1)",8.11 ± 0.11,7.66 ± 0.10,–,–
"COc1ccc(C[C@@H]2NC(=O)CC3(CCCCC3)SSC[C@@H](C(=O)N3CCC[C@H]3C(=O)N[C@@H](CCCNC(=N)N)C(=O)NCCN)NC(=O)[C@H](CC(N)=O)NC(=O)[C@H](CCC(N)=O)NC(=O)[C@H](Cc3ccccc3)NC2=O)cc1 [[1(beta-mercapto-beta,beta-cyclopentamethylenepropionic acid), 2-(O-methyl)tyrosine, 8-arginine-N-(beta-amino)ethylamide, 9-desglycinamide] vasopressin] (Y(Me)FQNCPR-Ethylenediamine; linker N-5 via X1)",–,–,~ 6.3,8.75 ± 0.06
"CNC(=O)[C@H](CCCNC(=N)N)NC(=O)[C@@H]1CCCN1C(=O)[C@@H]1CSSC2(CCCCC2)CC(=O)N[C@@H](Cc2ccc(OC)cc2)C(=O)N[C@@H](Cc2ccccc2)C(=O)N[C@@H](CCC(N)=O)C(=O)N[C@@H](CC(N)=O)C(=O)N1 [[1-(beta-mercapto-beta,beta-cyclopentamethylenepropionic acid), 2-(O-methyl)tyrosine, 8-arginine-N-methylamide, 9-desglycinamide] vasopressin] (Y(Me)FQNCPR-NHMe; linker N-5 via X1)",–,–,~ 5.9,8.73 ± 0.02
